The source of these data is patent publication US10189836B2, “Therapeutic compounds, compositions and methods of use thereof” (Genentech, Inc., priority 2015, dated 2019).

The target in experiment [1] is isolated recombinant JAK1 kinase domain (Homo sapiens (Human), UniProt P23458). Nature of the experiment: JAK1 enzyme assay (Caliper LabChip, Ki). The class given is biochemical. As to conditions: isolated recombinant JAK1 kinase domain, 1.5 nM enzyme, ATP 25 μM.
Experiment [2] has as its target isolated recombinant JAK2 kinase domain (Homo sapiens (Human), UniProt O60674). In words: JAK2 enzyme assay (Caliper LabChip, Ki). As to conditions: isolated recombinant JAK2 kinase domain, 0.2 nM enzyme, ATP 25 μM. It counts as biochemical.

isolated recombinant JAK1 kinase domain, sequence (P23458 875-1153): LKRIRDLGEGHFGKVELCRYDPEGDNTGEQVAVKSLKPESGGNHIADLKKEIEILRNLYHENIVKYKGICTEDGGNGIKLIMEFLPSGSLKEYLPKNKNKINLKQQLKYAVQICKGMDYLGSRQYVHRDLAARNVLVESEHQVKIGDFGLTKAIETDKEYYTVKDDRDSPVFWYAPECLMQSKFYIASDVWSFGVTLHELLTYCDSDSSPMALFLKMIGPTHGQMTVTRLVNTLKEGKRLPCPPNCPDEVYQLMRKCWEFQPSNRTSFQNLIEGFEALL
isolated recombinant JAK2 kinase domain, sequence (O60674 849-1124): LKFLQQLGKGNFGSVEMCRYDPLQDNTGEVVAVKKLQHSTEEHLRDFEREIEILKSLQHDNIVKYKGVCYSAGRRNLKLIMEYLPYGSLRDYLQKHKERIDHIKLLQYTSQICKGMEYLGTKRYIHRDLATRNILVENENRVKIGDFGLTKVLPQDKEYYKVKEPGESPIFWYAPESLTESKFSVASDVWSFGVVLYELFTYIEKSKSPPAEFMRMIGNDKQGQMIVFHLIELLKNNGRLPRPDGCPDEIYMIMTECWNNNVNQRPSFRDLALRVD

Take `CN1CCN(C(=O)Cn2cc(Nc3nc4c(N5CC6CCC(C5)N6S(=O)(=O)c5ccccc5Cl)cccn4n3)cn2)CC1` [Example 111, 2-[4-[[8-[8-(2-chlorophenyl)sulfonyl-3,8-diazabicyclo[3.2.1]octan-3-yl]-[1,2,4]triazolo[1,5-a]pyridin-2-yl]amino]pyrazol-1-yl]-1-(4-methylpiperazin-1-yl)ethanone]: the Ki in experiment [1] and in experiment [2] was 0.5 nM in each case.

On to `CN1CCN(C(=O)Cn2cc(Nc3nc4c(N5CC6CCC(C5)N6S(=O)(=O)c5cccs5)cccn4n3)cn2)CC1` [Example 112, 1-(4-methylpiperazin-1-yl)-2-[4-[[8-[8-(2-thienylsulfonyl)-3,8-diazabicyclo[3.2.1]octan-3-yl]-[1,2,4]triazolo[1,5-a]pyridin-2-yl]amino]pyrazol-1-yl]ethanone], for which the Ki in experiment [1] is 0.5 nM; in experiment [2], 0.7 nM.

On to `CN1CCN(C(=O)Cn2cc(Nc3nc4c(N5CC6CCC(C5)N6c5ccc(Cl)cc5)cccn4n3)cn2)CC1` [Example 113, 2-[4-[[8-[8-(4-chlorophenyl)-3,8-diazabicyclo[3.2.1]octan-3-yl]-[1,2,4]triazolo[1,5-a]pyridin-2-yl]amino]pyrazol-1-yl]-1-(4-methylpiperazin-1-yl)ethanone], for which the values for the Ki in experiment [1] and in experiment [2] were 0.2 nM and 0.3 nM, respectively.

Turning to `CN1CCN(C(=O)Cn2cc(Nc3nc4c(N5CC6CCC(C5)N6C(=O)c5ccccc5Cl)cccn4n3)cn2)CC1` [Example 114], the Ki stood at 1.7 nM in experiment [1] and 4.8 nM in experiment [2].

For the molecule `CSc1ccccc1C(=O)N1C2CCC1CN(c1cccn3nc(Nc4cnn(CC(=O)N5CCN(C)CC5)c4)nc13)C2` [Example 115], the values for the Ki in experiment [1] and in experiment [2] were 1 nM and 2.1 nM, respectively.

Regarding `CN1CCN(C(=O)Cn2cc(Nc3nc4c(N5CC6CCC(C5)N6C(=O)C5(C#N)CCC5)cccn4n3)cn2)CC1` [Example 116, 1-[3-[2-[[1-[2-(4-methylpiperazin-1-yl)-2-oxo-ethyl]pyrazol-4-yl]amino]-[1,2,4]triazolo[1,5-a]pyridin-8-yl]-3,8-diazabicyclo[3.2.1]octane-8-carbonyl]cyclobutane-carbonitrile], the inhibition constant (Ki) in experiment [1] turned out to be 2.5 nM; in experiment [2], 3.5 nM.

Consider `CCc1cnn([C@@]2(CC#N)[C@@H]3CC[C@H]2CN(c2cccn4nc(Nc5cnn(CC(=O)N6CCN(C)CC6)c5)nc24)C3)c1` [Example 117, 2-[(1R,5S)-8-(4-ethylpyrazol-1-yl)-3-[2-[[1-[2-(4-methylpiperazin-1-yl)-2-oxo-ethyl]pyrazol-4-yl]amino]-[1,2,4]triazolo[1,5-a]pyridin-8-yl]-3-azabicyclo[3.2.1]octan-8-yl]acetonitrile], for which the Ki worked out at 18.3 nM in experiment [1] and 24.2 nM in experiment [2].

For the molecule `CN1CCN(C(=O)Cn2cc(Nc3nc4c(N5CC6CCC(C5)C6=CC#N)cccn4n3)cn2)CC1` [Example 118, 2-[3-[2-[[1-[2-(4-methylpiperazin-1-yl)-2-oxo-ethyl]pyrazol-4-yl]amino]-[1,2,4]triazolo[1,5-a]pyridin-8-yl]-3-azabicyclo[3.2.1]octan-8-ylidene]acetonitrile], the Ki was determined as 0.5 nM in experiment [1] and 1.5 nM in experiment [2].

`N#CC1(CNC2CCN(C(=O)Cn3cc(Nc4nc5c(N6CC7CCC(C6)N7C(=O)N6CC(C(F)(F)F)C6)cccn5n4)cn3)CC2)CC1` [Example 119, 1-[[[1-[2-[4-[[8-[8-[3-(trifluoromethyl)azetidine-1-carbonyl]-3,8-diazabicyclo[3.2.1]octan-3-yl]-[1,2,4]triazolo[1,5-a]pyridin-2-yl]amino]pyrazol-1-yl]acetyl]-4-piperidyl]amino]methyl] cyclopropanecarbonitrile]: the Ki in experiment [1] and in experiment [2] was 0.8 nM each time.
